This note sets out measurements from patent US11191288B2, “Use of a feed composition for reducing methane emission in ruminants, and/or to improve ruminant performance” (DSM IP ASSETS B.V., priority 2017, dated 2021).

In assay [1] the test system is rumen liquor. Put plainly: In vitro test for methane production (modified Hohenheim Forage value Test, HFT). The settings on record: for Total methane: 8 h, 39° C., artificial TMR, average of three experiments. It is filed as cell-based. How it is done: In Vitro Test for Methane Production:
(§1) A modified version of the “Hohenheim Forage value Test (HFT)” was used for testing the effect of specific compounds on the rumen functions mimicked by this in-vitro system.
(§2) Feed is gadded into a syringe with a composition of rumen liquor and an appropriate mixture of buffers. The solution is incubated at 39° C. After 8 hours the quantity (and composition) of gas phase produced is measured and put into a formula for conversion.
(§3) The feed stuff is sieved to 1 mm—usually TMR (44% concentrate, 6% hay, 37% maize silage and 13% grass silage)—and weighed exactly into 64 syringes. 4 of these syringes are the substrate controls, which display the gas production without the effect of the tested compounds. […] When needed, 4 syringes contain a carrier control (if the test compounds need a carrier). The remaining syringes contain the test substances, by groups of 4 syringes.
(§4) Preparation of the Medium Solution: • The components are mixed in a Woulff bottle in following order: • 711 ml water • 0.18 ml trace element solution • 355.5 ml buffer solution • 355.5 ml mass element solution • The completed solution is warmed up to 39° C. followed by the addition of 1.83 ml sodium salt solution and the addition of reduction solution at 36° C. The rumen liquor is added, when the indicator turns colourless.
(§5) 750 ml of rumen liquor are added to approximately 1,400 ml of medium solution under continued agitation and CO2-gassing.
(§6) The diluted rumen fluid (24 ml) is added to the glass syringe. The syringes are then incubated for 8 hours at 39° C. under gentle agitation. After 8 hours, the volume of gas produced is measured, and the percentage of methane in the gas phase is determined by gas chromatography.
(§7) The food fermented was artificial TMR (44% concentrate, 6% hay, 37% maize silage and 13% grass silage). Lauric acid from Sigma Aldrich was used at a concentration of 1000 μM. 3-Nitrooxy-propanol (3-NOP) was used at two different concentrations, 2.5 μM and 5 μM.
(§8) Ace.=acetate; Prop.=propionate

Assay [2] concerns rumen liquor. Put plainly: Effect on volatile fatty acids (VFA) profile, acetate/propionate ratio (modified Hohenheim Forage value Test, HFT). Type of assay: cell-based. The settings on record: for Ace./Prop.: 8 h, 39° C., artificial TMR, average of three experiments. The method, then:
as §1, §2, §3, §4, §5
Filling the Syringes, Incubation and Determining Gas Volumes and VFA Values:
as §6, §7, §8

With `CCCCCCCCCCCC(=O)O` [Lauric acid, reference compound], in the assay with rumen liquor [1] (Lauric acid 1000 μM), the “Reduction vs. control (methane)” value was determined as 0.012 mmol over 8 h and the Total methane turned out to be 0.255 mmol over 8 h. In the assay with rumen liquor [2] (Lauric acid 1000 μM), the “Reduction vs. control (Ace./Prop.)” value turned out to be 0.28 Mole Ratio and the Ace./Prop. came to 1.98 Mole Ratio.
For the compound `O=[N+]([O-])OCCCO` [3-NOP, 3-Nitrooxypropanol], in the assay with rumen liquor [1] (3-NOP 2.5 μM), the “Reduction vs. control (methane)” value is on record as 0.023 mmol over 8 h and the Total methane stood at 0.244 mmol over 8 h. In addition, in the assay with rumen liquor [1] (3-NOP 5 μM), the “Reduction vs. control (methane)” value was 0.17 mmol over 8 h and the Total methane worked out at 0.097 mmol over 8 h. In addition, in the assay with rumen liquor [2] (3-NOP 2.5 μM), the “Reduction vs. control (Ace./Prop.)” value turned out to be 0.17 Mole Ratio and the Ace./Prop. was 2.09 Mole Ratio. In addition, in the assay with rumen liquor [2] (3-NOP 5 μM), the “Reduction vs. control (Ace./Prop.)” value came out at 0.63 Mole Ratio and the Ace./Prop. is on record as 1.63 Mole Ratio.
